Results on ten molecules are retold here after patent EP0197829A1, “5H-pyrido[3',4':4,5]pyrrolo[3,2-c]pyridine derivatives, process for their preparation and their antitunour activity” (SANOFI, priority 1985, dated 1986).

Data set [1] concerns mélanome B 16. The data set is described as follows: B 16 melanoma test in vivo. The arrangement: species or system souris hybrides BDF1; Jour médian de survie: unit not given here. As to conditions: 0,5 mg/kg i.p. J1-J9. From the text:
(§1) L'activité antitumorale a été testée in vivo sur différentes tumeurs selon le protocole général suivant : Toutes les souris mâles ou femelles sont inoculées par voie intrapéritonéale au jour Jo avec une quantité déterminée de cellules tumorales viables, variable selon la tumeur.
(§2) Elles sont ensuite réparties en différents lots. Chaque lot correspondant aux animaux traités par le produit à tester à une dose déterminée est composé de lO souris. Dans ce cas, le produit à tester est dissous dans l'eau distillée et il est administré, pendant n jours (J1-Jn) variables selon le protocole choisi, par voie intrapéritonéale à raison de 0,1 ml par lO g de poids des souris traitées, les doses du produit administré étant précisées dans les tableaux ci-dessous.
(§3) Le lot "Contrôle négatif", correspondant aux animaux qui ne sont pas traités par un produit, comprend 2 √N animaux, N étant égal au nombre total de souris traitées par un produit.
(§4) Enfin, tous lés essais sont conduits parallèlement à l'étude d'un lot appelé "Contrôle positif" de 10 animaux qui est traité par une molécule active, variable selon le protocole choisi, dans les mêmes conditions que les lots traités par le produit à tester, afin de valider l'essai.
(§5) L'activité antitumorale est évaluée en considérant l'augmentation du temps de survie des animaux traités par rapport à celui des animaux du lot "Contrôle négatif" selon la formule : • Jour médian de survie des animaux traités à une T/C = dose donnée de produit x 100 • Jour médian de survie des animaux "Contrôle négatif"
(§6) Un composé est considéré comme étant actif lorsque la valeur du rapport T/C est égale ou supérieure à 125 % selon le protocole retenu. Il est toxique lorsque cette valeur est égale ou inférieure à 85 %. Le produit est également considéré comme toxique lorsque la variation pondérale, exprimée en grammes et calculée par la formule : Poids moyen du lot mesuré au jour 5 - poids moyen du même lot au jour 1, est égale ou inférieure à -4g . a) Test de la leucémie P 388 (GERAN et al., Cancer Chemother, 1972, 2, 07-57).
c) Test du mélanome B 16 (GERAN et al., Cancer Chemother, 1972, 2, 07-57).
Les essais sont effectués avec des souris hybrides BDF1 inoculées avec O,5 ml d'un homogénat de mélanome B 16 réalisé à partir de 1 g de tumeur dans 10 ml de sérum physiologique. Le composé à tester est administré pendant 9 jours (J1-J9). Le contrôle positif du test est le Cis- platine administré dans les mêmes conditions. Le nombre d'animaux survivants est évalué au jour J 60. Un composé est considéré comme étant actif lorsque le rapport T/C est supérieur ou égal à 125 %.

The test system of data set [2] is réticulosarcome M5-M5076. The data set is described as follows: M5-M5076 reticulosarcoma test in vivo. The arrangement: species or system souris hybrides BDF1. To be noted: 160 mg/kg i.p. J1, 5, 9, 13, 17.
From the text: as §1, §2, §3, §4, §5, §6
d) Test du réticulosarcome M5-M5076.
Les essais sont effectués avec des souris hybrides BDF1 inoculées avec 10^6 cellules de la lignée M5-M5076. Le composé à tester est administré 5 fois successivement de façon séquentielle (Jl, 5, 9, 13, 17). Le contrôle positif du test est le cyclophosphamide administré dans les mêmes conditions. Le nombre d'animaux survivants est évalué au jour J 75. Un composé est considéré comme actif lorsque le rapport T/C est supérieur ou égal à 125 %.

A short description of data set [3]: in vivo. On the set-up: species or system souris. To be noted: mouse, ip. The procedure: Ainsi, l'administration à des souris hybrides CDF1 saines, en une injection unique par la voie intrapéritonéale, de doses croissantes des composés à tester (5 mg, 10 mg, 20 mg, 40 mg/kg) a permis de constater que, à ces doses, les produits étaient parfaitement tolérés puisque le taux de survivants était de 100 p. 100.
Dans les mêmes conditions, administrés à des souris BDF1 saines, les taux de survivants étaient de 100 p. 100 jusqu'à 100 mg/kg pour les dérivés 1, 3 et 9 et jusqu'à 200 mg/kg pour les dérivés 2 et 8.

Data set [4] deals with lignée tumorale leucémie L 1210. The data set is described as follows: In vitro cytotoxicity on L 1210 leukemia cell culture. To be noted: Mus musculus, L1210; concentration inhibiting cell proliferation by 50 p. 100, after 48 h contact; read-out: ID 50 (the source's name). It counts as cell-based. The procedure:
1) In vitro : (PAOLETTI et al., Chem. Biol. Interaction, 1979, 25, 45-58).
L'activité cytotoxique des composés de l'invention a été évaluée par des essais in vitro. Ces essais consistent à ajouter des concentrations croissantes du composé à tester à une culture cellulaire de la lignée tumorale leucémie L 1210 en phase exponentielle de croissance. Les cellules sont incubées à 37°C dans une étuve à C02 et comptées toutes les 24 heures. Le calcul de l'ID 50 (concentration du produit exprimée en micromole 1^-1 qui inhibe la prolifération cellulaire à 50 p. 100) est effectué après 48 heures de contact. Ainsi déterminées, les ID 50 des composés de l'invention sont rassemblées dans le tableau I ci-après : […]

Data set [5] concerns leucémie P 388. It counts as in vivo, souris hybrides CDF1.
From the text: as §1, §2, §3, §4, §5, §6
Les essais sont effectués avec des souris hybrides CDF1 inoculées par voie intrapéritonéale avec […] leucémiques de la lignée P 388. Le composé à tester est administré pendant 5 jours (Jl-J5). Le contrôle positif du test est le 5-fluorouracile qui est administré dans les mêmes conditions.
[…] Un composé est considéré comme étant actif lorsque le rapport T/C est supérieur à 127 %.

The subject of data set [6] is leucémie L 1210. The data set is described as follows: L 1210 leukemia test in vivo. To be noted: 20 mg/kg i.p. J1-J5. The arrangement: species or system souris hybrides CDF1.
From the text: as §1, §2, §3, §4, §5, §6
b) Test de la leucémie L 1210 (GERAN et al., Cancer Chemother, 1972, 2, 07-57).
Les essais sont effectués avec des souris hybrides CDF1 inoculées avec 10^5 cellules leucémiques de la lignée L 1210. Le composé à tester est administré pendant 5 jours (J1-J5). Le contrôle positif du test est le 5-fluorouracile administré dans les mêmes conditions. Le nombre d'animaux survivants est évalué au jour J 60. Un composé est considéré comme étant actif lorsque le rapport T/C est supérieur ou égal à 125 %.

The mark [7] stands for this setting: 5 mg/kg i.p. J1-J5, at day J 40.
The mark [8] stands for this setting: 10 mg/kg i.p. J1-J5, at day J 40.
Setting [9] is: 20 mg/kg i.p. J1-J5, at day J 40.
The mark [10] stands for this setting: 40 mg/kg i.p. J1-J5, at day J 40.
Setting [11] is: 80 mg/kg i.p. J1-J5, at day J 40.

SMILES strings stand for the structures. Where “and” joins values, the source holds several entries; their conditions need not be identical. Identical values can stand only once. Like-named read-outs stand apart in the source and are kept apart here. Where only a bound is given, the exact number is not on record here.

Take `[NH2][Pt]([NH2])([Cl])[Cl]` [Cis-platine, reference compound]: in data set [1], the “Jour médian de survie” value is 30 and 31,0 and 40,0; the T/C % is 126% and 133% and 141%. Also, in data set [1] (at day J 60), the Survivants stood at 0.
In the case of `O=P1(N(CCCl)CCCl)NCCCO1` (stereo not drawn) [Cyclophosphamide, cyclophosphamide, reference compound], in data set [2], the “Jour médian de survie” value was > 60 and > 71; the T/C % is >229% and >246%. The Survivants in data set [2] (at day J 75) was 9 and 6.
For `Cc1cnc(NCCNCCO)c2c1[nH]c1ccncc12` [Dérivé N° 2, [[[(hydroxy-2 éthyl-l)amino]-2 éthyl-1]-amino]-1 méthyl-4 5-H pyrido[3',4':4,5]pyrrolo[3,2-c]pyridine], in data set [3] (200 mg/kg), the survival stood at 100%.
In the case of `Cc1cnc(NCCCN(C)C)c2c1[nH]c1ccncc12` [Dérivé N° 3 bis, [(diméthylamino-3 propyl-1)amino]-1 méthyl-4 5-H pyrido[3',4':4,5]pyrrolo[3,2-c]pyridine], in data set [4], the IC50 was found to be 160 nM. Moreover, the “Jour médian de survie” value was 15,83 in data set [5] (5 mg/kg i.p. J1-J5); 17,13 in data set [5] (10 mg/kg i.p. J1-J5); 20,33 in data set [5] (20 mg/kg i.p. J1-J5); 20,25 in data set [5] (40 mg/kg i.p. J1-J5); 22 in data set [5] (50 mg/kg i.p. J1-J5); 19,88 in data set [5] (80 mg/kg i.p. J1-J5). The T/C % came to 145% in data set [5] (5 mg/kg i.p. J1-J5); 156% in data set [5] (10 mg/kg i.p. J1-J5); 186% in data set [5] (20 mg/kg i.p. J1-J5); 184% in data set [5] (40 mg/kg i.p. J1-J5); 181% in data set [5] (50 mg/kg i.p. J1-J5); 181% in data set [5] (80 mg/kg i.p. J1-J5). The Survivants was 0/10 in data set [5] (setting [7]); 0/10 in data set [5] (setting [8]); 0/10 in data set [5] (setting [9]); 0/10 in data set [5] (setting [10]); 1/10 à J 42 in data set [5] (50 mg/kg i.p. J1-J5, à J 42); 0/10 in data set [5] (setting [11]).
`CCN(CC)CCCNc1ncc(C)c2c1c1cnccc1n2CC` [Dérivé N° 5, [(diéthylamino-3 propyl-1)amino]-1 méthyl-4 éthyl-5 5-H pyrido[3',4':4,5]pyrrolo[3,2-c]pyridine]: the IC50 in data set [4] is 1400 nM.
`Cc1cnc(NCCCN(C)C)c2c3cnccc3n(C)c12` [Dérivé N° 9, diméthyl-4,5 [(diméthylamino-3 propyl-1)-amino]-1 5-H pyrido[3',4':4,5]pyrrolo[3,2-c]pyridine]: the IC50 in data set [4] came to 300 nM. Moreover, the survival in data set [3] (100 mg/kg) was 100%. The “Jour médian de survie” value is 15,75 in data set [5] (5 mg/kg i.p. J1-J5); 17,38 in data set [5] (10 mg/kg i.p. J1-J5); 19,33 in data set [5] (20 mg/kg i.p. J1-J5); 20,0 in data set [5] (40 mg/kg i.p. J1-J5); 8,25 in data set [5] (80 mg/kg i.p. J1-J5). Moreover, the T/C % in data set [5] (5 mg/kg i.p. J1-J5) is 136%; in data set [5] (10 mg/kg i.p. J1-J5), 150%; in data set [5] (20 mg/kg i.p. J1-J5), 167%; in data set [5] (40 mg/kg i.p. J1-J5) it was 173%; in data set [5] (80 mg/kg i.p. J1-J5), 71%. For the same molecule, the Survivants in data set [5] (setting [7]), in data set [5] (setting [8]), in data set [5] (setting [9]), in data set [5] (setting [10]) and in data set [5] (setting [11]) was 0 each time.
Regarding `CCN(CC)CCCCNc1ncc(C)c2c1c1cnccc1n2C` [Dérivé N° 10, [(diéthylamino-4 butyl-1)amino]-1 diméthyl-4,5 5-H pyrido[3',4':4,5]pyrrolo[3,2-c]pyridine], the IC50 in data set [4] was found to be 2000 nM.
Turning to `CCCN(CCC)CCCNc1ncc(C)c2[nH]c3ccncc3c12` [Dérivé N° 12, [(dipropylamino-3 propyl-1)amino]-1 méthyl-4 5-H pyrido[3',4':4,5]pyrrolo[3,2-c]pyridine], in data set [4], the IC50 was found to be 8500 nM.
`CCCN(CCC)CCCNc1ncc(C)c2c1c1cnccc1n2C` [Dérivé N° 13, diméthyl-4,5[(dipropylamino-3 propyl-1)ami-no]-l 5-H pyrido[3',4':4,5]pyrrolo[3,2-c]pyridine]: the IC50 in data set [4] was determined as 3200 nM.
Turning to `O=c1[nH]cc(F)c(=O)[nH]1` [Fluorouracile, 5-fluorouracile, reference compound], in data set [6], the “Jour médian de survie” value is 16,0 and 18; the T/C % was 178% and 195%. The molecule further had a Survivants in data set [6] (at day J 60) of 0. For the same molecule, the Survivants in data set [5] (setting [9]) was 0/10 and 0.
